From patent US10668062B2, “Oxabicycloheptanes and oxabicycloheptenes for the treatment of diabetes” (priority 2012, dated 2020)
“Also recorded” adds a separate entry of the source.

How the values were obtained:
[1] = Type 2 Diabetes related vascular injury in human patients (Example 5); format: in vivo; details: human patients diagnosed with Type 2 Diabetes
[2] = Other symptoms and complications of Type 2 Diabetes (Example 6); format: in vivo; details: for effects of other dysfunctions associated with or caused by Type 2 Diabetes: atherosclerosis, low glucose tolerance, dyslipidemia, hyperlipidemia, hypertriglyceridemia, hypercholesterolemia; for complications associated with or caused by Type 2 Diabetes: in vivo
[3] = Activity when given orally to mice; format: in vivo; details: oral
Description: (§1) The compounds used in the method of the present invention are protein phosphatase 2A (PP2A) inhibitors (Lu et al., 2009; U.S. Pat. No. 7,998,957 B2). […] It has also been shown that another structural homolog of these compounds, LB-107, is active when given orally to mice.
(§2) Disclosed herein is that PP2A inhibitors are effective in treating insulin resistance, Type 2 Diabetes and disorders related to Type 2 Diabetes. […] We have also shown that another structural homolog of these compounds, LB-107, is active when given orally to mice. LB-100 is entering clinical trials as a potential agent for enhancing the effectiveness of certain anticancer agents.

[4] = tested on: Akt; assay: Dephosphorylation and inactivation of Akt in mammalian cells (Example 3); format: cell-based; details: mammalian cells incl. fat, liver, muscle, endothelial cells, hepatocytes, pancreatic islet β-cells
[5] = Insulin resistance in human patients diagnosed with Type 2 Diabetes (Example 4); format: in vivo
[6] = Toxicity studies in dogs; format: in vivo; details: doses known to reduce PP2A activity in tissue
Description: as §2

[7] = molecular target: T1, PP2A (Homo sapiens, UniProt P67775); details: cited from earlier work
T1 construct: endogenous in cells; host or cells: human cancer cells
T1 sequence (P67775 whole entry): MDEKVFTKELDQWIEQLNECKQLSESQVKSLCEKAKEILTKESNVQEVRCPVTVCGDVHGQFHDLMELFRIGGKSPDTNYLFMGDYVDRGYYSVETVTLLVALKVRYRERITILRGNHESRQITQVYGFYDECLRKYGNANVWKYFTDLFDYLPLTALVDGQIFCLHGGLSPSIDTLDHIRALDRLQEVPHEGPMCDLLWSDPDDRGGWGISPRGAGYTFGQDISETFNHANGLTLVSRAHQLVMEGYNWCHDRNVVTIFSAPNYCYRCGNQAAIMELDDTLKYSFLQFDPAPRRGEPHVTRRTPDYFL
T1 sequence (P30153 whole entry partner): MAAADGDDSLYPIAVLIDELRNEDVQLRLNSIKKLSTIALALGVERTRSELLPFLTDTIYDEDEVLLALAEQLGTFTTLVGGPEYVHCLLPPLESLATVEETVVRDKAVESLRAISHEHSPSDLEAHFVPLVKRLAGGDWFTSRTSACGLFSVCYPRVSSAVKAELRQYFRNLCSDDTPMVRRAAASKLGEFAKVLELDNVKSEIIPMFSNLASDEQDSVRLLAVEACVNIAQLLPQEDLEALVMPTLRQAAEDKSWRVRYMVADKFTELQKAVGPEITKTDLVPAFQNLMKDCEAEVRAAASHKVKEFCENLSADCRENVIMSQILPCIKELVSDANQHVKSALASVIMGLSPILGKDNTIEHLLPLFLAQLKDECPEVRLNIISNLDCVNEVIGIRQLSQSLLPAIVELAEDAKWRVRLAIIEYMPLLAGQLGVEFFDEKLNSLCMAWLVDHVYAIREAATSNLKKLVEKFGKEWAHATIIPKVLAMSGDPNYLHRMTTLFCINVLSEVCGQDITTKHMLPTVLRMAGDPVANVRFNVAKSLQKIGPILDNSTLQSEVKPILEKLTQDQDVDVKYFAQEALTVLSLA

[8] = Toxicity studies in rats; format: in vivo; details: doses known to reduce PP2A activity in tissue
Description: as §2

[9] = molecular target: T1, PP2A; details: given parenterally in mice; cited from earlier work
[10] = tested on: cancer cells; assay: Growth of cancer cells in mouse model systems; format: in vivo
Description: as §1, §2

[11] = tested on: endothelial barrier; details: Zhou et al, 2012; cited from earlier work
[12] = tested on: endothelial barrier; details: model of sepsis; by inhibition of PP2A activation; cited from earlier work
[13] = molecular target: T2, PP2A (Rattus norvegicus, UniProt P63331); details: inhibition of PP2A activity; Galbo et al, 2011; cited from earlier work
T2 construct: rat liver cells exposed to palmitate, a fatty acid, PP2A activity is increased; host or cells: rat liver cells (endogenous PP2A)
T2 sequence (P63331 whole entry): as the sequence (P67775 whole entry) above, with V5L counted along it
T2 sequence (Q5XI34 1-589 partner): as the sequence (P30153 whole entry partner) above, with S324T counted along it

SMILES	Type 2 Diabetes related vascular injury caused by disruption of the endothelial barrier [1]	Type 2 Diabetes related vascular injury in the liver, muscle, retina and pancreas [1]	effects of other dysfunctions associated with or caused by Type 2 Diabetes [2]	complications associated with or caused by Type 2 Diabetes [2]	activity when given orally to mice [3]	activation of Akt [4]	dephosphorylation and inactivation of Akt by PP2A [4]	phosphorylation of Akt [4]	insulin resistance [5]	insulin sensitivity [5]	toxicity on intravenous administration [6]	inhibition of PP2A in vitro in human cancer cells [7]	toxicity on intravenous administration [8]	inhibition of PP2A in xenografts of human tumor cells in mice [9]	growth of cancer cells in mouse model systems [10]	induction of endothelial barrier injury by lipopolysaccharide and interferon gamma [11]	endothelial barrier function [12]	impairment of insulin activity [13]
COC(=O)C1C(C(=O)N2CCN(C)CC2)[C@@H]2CC[C@H]1O2 (stereo in doubt) [LB-107, 3-(4-Methylpiperazine-1-carbonyl)-7-oxa-bicyclo[2,2,1]heptane-2-carboxylic acid methyl ester]	reduce Type 2 Diabetes related vascular injury caused by disruption of the endothelial barrier	reduce Type 2 Diabetes related vascular injury in the liver, muscle, retina and pancreas	reduce the effects of other dysfunctions	reduce complications associated with or caused by Type 2 Diabetes	active	increase activation of Akt	reduce dephophorylation and inactivation of Akt	increase phosphorylation of Akt	reduce insulin resistance	increase insulin sensitivity								
CN1CCN(C(=O)C2C(C(=O)O)[C@H]3CC[C@@H]2O3)CC1 (some centres unmarked) [LB-100]	reduce Type 2 Diabetes related vascular injury caused by disruption of the endothelial barrier	reduce Type 2 Diabetes related vascular injury in the liver, muscle, retina and pancreas	reduce the effects of other dysfunctions	reduce complications associated with or caused by Type 2 Diabetes		increase activation of Akt	reduce dephophorylation and inactivation of Akt	increase phosphorylation of Akt	reduce insulin resistance	increase insulin sensitivity	without undue toxicity	inhibitors of PP2A	without undue toxicity	inhibitors of PP2A	inhibit the growth of cancer cells			
CC(C)(C)OC(=O)N1CCN(C(=O)C2C(C(=O)O)[C@H]3CC[C@@H]2O3)CC1 (some centres unmarked) [LB-102]	reduce Type 2 Diabetes related vascular injury caused by disruption of the endothelial barrier	reduce Type 2 Diabetes related vascular injury in the liver, muscle, retina and pancreas	reduce the effects of other dysfunctions	reduce complications associated with or caused by Type 2 Diabetes		increase activation of Akt	reduce dephophorylation and inactivation of Akt	increase phosphorylation of Akt	reduce insulin resistance	increase insulin sensitivity		inhibitors of PP2A		inhibitors of PP2A	inhibit the growth of cancer cells			
O=C1O[C@H]([C@@H](O)CO)C(O)=C1O [ascorbic acid]																prevent the induction of endothelial barrier injury	improves endothelial barrier function	
C[C@@]12C(=O)OC(=O)[C@]1(C)[C@H]1CC[C@@H]2O1 [cantharidin]																		reversed the impairment of insulin activity
C=C1[C@@H](O)[C@@H]2O[C@]3(CC[C@H](/C=C/[C@@H](C)[C@@H]4CC(C)=C[C@@]5(O[C@H](C[C@@](C)(O)C(=O)O)CC[C@H]5O)O4)O3)CC[C@H]2O[C@@H]1[C@@H](O)C[C@H](C)[C@H]1O[C@@]2(CCCCO2)CC[C@H]1C [okadaic acid]																prevent the induction of endothelial barrier injury; also recorded: prevents the induction of endothelial barrier dysfunction		reversed the impairment of insulin activity
